Measurements from patent US6638938B1, “Method for preventing tissue injury from hypoxia” (Cell Therapeutics, Inc., priority 1993, dated 2003).

How the values were obtained:
neutrophils in BAL = experiment: percentage of neutrophils among BAL samples; assay type: in vivo, Balb/C mice; conditions: hemorrhage/resuscitated mice treated; 11±2% in untreated; p<0.05
Description: This example illustrates a study of Lisofylline in a murine hemorrhage and resuscitation model. Male Balb/C mice, 8-12 weeks of age, were obtained from Harlan-Sprague Dawley (Indianapolis, Ind.). The animals were kept on a 12 hour light/dark cycle with free access to food and water. With this model, 30% of the calculated blood volume (approximately 0.55 ml for a 20 gram mouse) was withdrawn from a methoxyflurane anesthetized mouse by cardiac puncture over a 60-second period. The blood was collected into a heparinized syringe (5 units heparin), kept at 37° C. for one hour, then reinfused into the mouse through a retroorbital plexus injection. Using this method, one is able to resuscitate all hemorrhaged mice without complication. […]
Three days following hemorrhage and resuscitation or the initiation of treatment with Lisofylline therapy in normal treated animals, mice were anesthetized with methoxyflurane and sacrificed by exsanguination through cardiac puncture into a heparinized (5 U) syringe. […] As determined by cytology, there was less than 3% contamination of alveolar macrophages with lymphocytes, neutrophils, or other mononuclear cell populations when BAL specimens are collected in normal Balb/C mice, but approximately 11±2% of isolated cells are neutrophils in mice subjected 3 days previously to 30% blood volume hemorrhage with resuscitation one hour later. […]

[1] = tested on: neutrophils in lung lavages; experiment: lung lavage neutrophils of intact rats given IL-1 intratracheally; assay type: in vivo, Sprague-Dawley rats
Description: Interleukin-1α (IL-1) and Lisofylline administration in Male Sprague-Dawley rats weighing 300-350 g (Sasco, Omaha, Neb.) were fed a normal diet and acclimated to altitude (Denver, Colo.) for at least 14 days before study. Rats were anesthetized with ketamine (90 mg/kg) and zylazine (7 mg/kg) intraperitoneally and then supplemented as needed with ketamine and zylazine and kept on a warming blanket. The trachea was cannulated with an indwelling 15 gauge stub adaptor tube. After 5 ventilated breaths (Harvard Apparatus Co., Millis, Mass.), IL-1 (0.5 ml, 50 ng) in sterile, endotoxin-free saline, was rapidly instilled intratracheally with a syringe, followed by another 5 ventilated breaths. Sham treated rats received identical anesthesia and surgery but were injected only with sterile saline intratracheally. […]
Saline (3.0 ml×2) was slowly injected intratracheally and then withdrawn. Recovered lavage fluid was quantitated and centrifuged for 5 min and the cell pellet resuspended in 1.0 ml of lavage. Total cells were counted in a hemocytometer and a cytospin preparation (Shandon Southern Products Ltd, Cheshire, England) Wright-stained and examined to determine the percentages of neutrophils.

[2] = tested on: human neutrophils (PA, lyso-PA); experiment: PA and lyso-PA mass in human neutrophils after hypoxia/reoxygenation; assay type: cell-based
Description: This example provides evidence from a group of experiments of the nexus and relationship between inhibiting linoleate-enriched PA species and reversal of hypoxic/reoxygenation tissue injury with Lisofylline. Lisofylline treated human neutrophils were exposed to hypoxia and then reoxygenation in vitro. Human neutrophils (PMN) were prepared from heparinized blood obtained from consenting, healthy human volunteers, isolated and highly purified (>99%)-by percoll gradient anddifferential centrifugation and resuspended in HBSS (Hanks balanced salt solution). Human neutrophils were placed in hypoxia (95% N2+5% CO2) for 60 min and then reoxygenated (21% O2+5% CO2) for 20 min.
Following hypoxia/reoxygenation, human neutrophils had increased PA concentrations with a retention time (Rf) characteristic of linoleate-enriched PA species. The analysis was done by fixing the neutrophils in ice-cold methanol, extracting the lipids and then separating them by HPLC using a Waters μ-Porosil silica column and an anisocratic gradient (Bursten et al., J. Biol. Chem. 266:20732, 1991). Lipids in the column effluent were monitored at 206-224nm. HPLC fractions were also analyzed by thin layer chromatography (TLC), amine content, acyl content and mass spectroscopy to confirm peak identities. Fast-atom bombardrment (FAB) mass spectroscopy spectra were acquired using a VG 70 SEQ tandem hybrid instrument of EBqQ geometry (VG Analytical, Altricham UK) as described in Bursten et al. The mass of total PA varied from 0.65-0.75% in unstimulated neutrophils to 2.7-3.6% of total detectable lipids in stimulated neutrophils (i.e., increased by 3.5-5 fold), whereas lyso-PA mass in neutrophils pretreated with Lisofylline and subject to hypoxia/reoxygenation stimulation could range as high as 7-8% of total detectable lipids. Hypoxia/reoxygenated neutrophils preincubated with 10 μM to 100 μM Lisofylline had decreased PA and increased lyso-PA total mass compared to untreated but stimulated neutrophils.

isolated rat kidneys = experiment: ischemic isolated rat kidney reperfused with human neutrophils; conditions: Ischemia + neutrophils + Lisofylline
Text: This example illustrates an in vivo kidney model of hypoxic tissue injury using Lisofylline. Isolated rat kidneys were rendered ischemic and reperfused with human neutrophils (prepared as in example 4 above) according to the procedure in Linas et al;, Am. J. Physiol. 24:728-735, 1988. Lisofylline decreased injury in this ischemic isolated rat kidney model according to the data presented in Table 8 below wherein GFR refers to glomerular filtration rate and TNa refers to tubular sodium reabsorption.

[3] = hypoxia/reoxygenated neutrophils preincubated with 10 μM to 100 μM, versus untreated but stimulated

C[C@@H](O)CCCCn1c(=O)c2c(ncn2C)n(C)c1=O [Lisofylline, 1-R-(5-hydroxyhexyl)-3,7-dimethylxanthine]
percentage of neutrophils among BAL samples (neutrophils in BAL): 6±2% | Total Lavage PMNs ([1]; IL-1 + Lisofylline (100 μg/kg)): 3.64 ± 0.84 (9)δ number × 10^6 | Total Lavage PMNs ([1]; Sham + Lisofylline (100 μg/kg)): 0.42 ± 0.14 (8)δ number × 10^6 | PA total mass [2, 3]: decreased | lyso-PA total mass [2, 3]: increased | lyso-PA mass ([2]; neutrophils pretreated with Lisofylline, hypoxia/reoxygenation stimulation, could range as high as): 7-8 % of total detectable lipids | TNa (tubular sodium reabsorption) (isolated rat kidneys; control 90%, ischemia + neutrophils 40%): 78% (n = 6) | GFR (glomerular filtration rate) (isolated rat kidneys; control 250, ischemia + neutrophils 113): 202 (n = 6)
